# Values of other authors, collected in US9920373B2, “Biomarkers of response to proteasome inhibitors” (MILLENNIUM PHARMACEUTICALS, INC., priority 2011, dated 2018).
# Details: upon exposure to aqueous solutions or plasma; cited from earlier work
compound,measurement,value
"CC(C)C[C@H](NC(=O)CNC(=O)c1cc(Cl)ccc1Cl)B1OC(=O)C(CC(=O)O)(CC(=O)O)O1 [MLN9708, 2,2′-{2-[(1R)-1-({[(2,5dichlorobenzoyl)amino]acetyl}amino)-3-methylbutyl]-5-oxo-1,3,2-dioxaborolane-4,4-diyl}diacetic acid]",hydrolysis to the biologically active form,immediately hydrolyzes to MLN2238
